Measured values published in US6287813A, “Antibiotic-based gene regulation system” (Cistronics Cell Technology GmbH, priority 1999, dated 2001).

Target: T1, PIT2 (Pip-p65)/PPIR (Streptomyces coelicolor, UniProt Q9ADN3)
T1 construct: pMF206 with pMF172 (PPIR-SEAP) in CHO-K1
T1 sequence (Q9ADN3 1-252): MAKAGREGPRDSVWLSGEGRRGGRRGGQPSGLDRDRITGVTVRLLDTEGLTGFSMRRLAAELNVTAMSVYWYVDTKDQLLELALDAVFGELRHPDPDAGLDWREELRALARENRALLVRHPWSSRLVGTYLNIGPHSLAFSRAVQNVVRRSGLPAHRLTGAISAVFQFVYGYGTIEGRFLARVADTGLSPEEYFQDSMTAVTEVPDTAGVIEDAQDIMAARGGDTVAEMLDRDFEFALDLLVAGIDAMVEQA
Experiment: SEAP reporter assay, CHO-K1 cotransfected with pMF206 (PIT2; Pip-p65) and pMF172 (PPIR-SEAP)
Type: cell-based
Conditions: +PI (2 μg/ml), 48 hr post transfection
Text: PIT2, the fusion protein of Pip and the p65 transactivation domain of the human NF-κB transcription activator was cloned in a three step procedure: (i) The p65 domain of the human NF-κB transcription activator was amplified from pSG424-p65 (kindly provided by H. Hauser, GBF, Braunschweig, Germany) with oligos OMF97:
Chinese hamster ovary cells (CHO-K1, ATCC: CCL 61), Baby hamster kidney cells (BHK-21, ATCC: CRL-8544), and HeLa cells (ATCC: CRL-7923) as well as stable cell lines CHO-PIT1, CHO-PIT2, CHO-TWIN195, CHO-TWIN1108 and CHO-PIT1-SEAP were cultured as described before (Fussenegger et al., 1998, Nat. Biotechnol. 16,468-472) in the presence of appropriate antibiotics: G418 400 μg/ml; zeocin 100 μg/ml. Optimized CaPO4 protocols were used for high efficiency transient transfection of all cell lines (id). Transient transfected cells were routinely analyzed after 48 h for GFP or SEAP expression using fluorescence microscopy and p-nitrophenolphosphate-based light absorbance timecourse, respectively, as described before (Fussenegger et al., 1998, Nat. Biotechnol. 16, 468-472; Berger et al., 1988, Gene 66, 1-10 b). […]
In addition, pMF206 (PIT2; Pip-p65) was cotransfected with pMF172 (PPIR -SEAP) and the SEAP readout in the absence and presence of PI (2 μg/ml) was directly compared to CHO-K1 cells cotransfected with pMF156 (PIT; Pip-VP16) and pMF172 (PPIR -SEAP). […]

pristinamycin I [PI]
SEAP readout (slope of the p-nitrophenolphosphate-based light absorbance time courses): 0.31 ± 0.003
